Test results: article PMC3790268 (Bioorganic & medicinal chemistry letters, 2013)

Molecular target: rat nNOS (Rattus norvegicus, UniProt P29476)
Details: compared with (R,R)-16a, (S,S)-16b and (R)-6b

- decreased affinity for nNOS: 10 fold
Compound: Cc1cc(N)nc(COC[C@@H](N)[C@H](C)OCc2cc(C)cc(N)n2)c1 [(S,R)-16c]
